For 17 compounds, inhibition and IC50 results are on record in ChEMBL document CHEMBL4834458, “Diterpenoids with Aromatase Inhibitory Activity from the Rhizomes of Kaempferia elegans” (J Nat Prod, 2021).

For series [1], the target named is T1, Aromatase (Homo sapiens, UniProt P11511).
T1 sequence (P11511 whole entry): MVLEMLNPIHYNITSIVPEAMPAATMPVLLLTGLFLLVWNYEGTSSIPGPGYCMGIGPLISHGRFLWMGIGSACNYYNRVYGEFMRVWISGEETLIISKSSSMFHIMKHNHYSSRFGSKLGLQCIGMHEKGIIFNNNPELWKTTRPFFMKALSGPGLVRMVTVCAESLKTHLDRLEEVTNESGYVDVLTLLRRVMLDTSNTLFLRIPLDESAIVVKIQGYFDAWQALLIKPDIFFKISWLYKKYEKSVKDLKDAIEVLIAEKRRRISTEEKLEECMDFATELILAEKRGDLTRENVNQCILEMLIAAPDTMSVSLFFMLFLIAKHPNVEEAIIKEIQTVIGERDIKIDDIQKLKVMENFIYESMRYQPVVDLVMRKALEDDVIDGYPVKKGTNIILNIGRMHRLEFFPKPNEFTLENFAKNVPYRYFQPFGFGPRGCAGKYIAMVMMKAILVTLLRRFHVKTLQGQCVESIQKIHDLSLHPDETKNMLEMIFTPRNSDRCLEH
The series is described as follows: Inhibition of aromatase (unknown origin) at 12.5 uM relative to control.

The target in series [2] is T1, Aromatase. The series is described as follows: Inhibition of aromatase (unknown origin).
The test system of another series is HeLa. The series is described as follows: Cytotoxicity against human HeLa cells assessed as reduction in cell viability incubated for 48 hrs by MTT assay. The series is classed as functional, cell-based. On the technique in general: Tetrazolium dyes change colour on reduction, which living cells bring about.
The next series has as its system HepG2. The series is described as follows: Cytotoxicity against human HepG2 cells assessed as reduction in cell viability incubated for 48 hrs by MTT assay. Format: functional, cell-based. The conditions noted are these: HepG2, 48 h.
In a further series the test system is K562. The series is described as follows: Cytotoxicity against human K562 cells assessed as reduction in cell viability incubated for 48 hrs by MTT assay. The note with it: K562, 48 h. Format: functional, cell-based.
Series [3] is described as follows: Cytotoxicity against human NCI-H69AR cells assessed as reduction in cell viability incubated for 48 hrs by MTT assay. Format: functional, cell-based.
The test system of the next series is A549. The series is described as follows: Cytotoxicity against human A549 cells assessed as reduction in cell viability incubated for 48 hrs by MTT assay. The series is classed as functional, cell-based. The conditions noted are these: A549, 48 h.
In another series the test system is MDA-MB-231. The series is described as follows: Cytotoxicity against human MDA-MB-231 cells assessed as reduction in cell viability incubated for 48 hrs by MTT assay. The conditions noted are these: MDA-MB-231, 48 h. The series is classed as functional, cell-based.
The next series relates to T47D. The series is described as follows: Cytotoxicity against human T47D cells assessed as reduction in cell viability incubated for 48 hrs by MTT assay. Format: functional, cell-based.
For a further series, the system named is HuCCT-1. The series is described as follows: Cytotoxicity against human HuCC-A1 cells assessed as reduction in cell viability incubated for 48 hrs by MTT assay. Format: functional, cell-based. The conditions noted are these: HuCCT-1, 48 h.
The test system of another series is MRC5. The series is described as follows: Cytotoxicity against human MRC5 cells assessed as reduction in cell viability incubated for 48 hrs by MTT assay. Format: cell-based. The note with it: MRC5, 48 h.

The compound `CC(C)c1ccc2c(c1)CC[C@H]1C(C)(C)CCC[C@]21C` displayed an inhibition at 12.5 µM at Aromatase [1] of 44%. In turn, `CC(C)C1=CC(=O)C2=C(CC[C@H]3C(C)(C)CCC[C@]23C)C1=O` came in with an inhibition at 12.5 µM against Aromatase [1] of 42%.

At Aromatase [1], `C=C[C@]1(C)C=C2[C@H](O)C[C@H]3C(C)(C)CCC[C@]3(C)[C@H]2CC1` yielded an inhibition at 12.5 µM of 31%. At Aromatase [1], `CC(C)c1ccc2c(c1)[C@H](O)C[C@H]1C(C)(C)CCC[C@]21C` returned an inhibition at 12.5 µM of 30%. `CC(C)c1cc(O)c2c(c1)CC[C@H]1C(C)(C)CCC[C@]21C`: the IC50 amounted to 3.7 µM on Aromatase [2]; 27.2 µM in the series with HeLa; 27.2 µM in the series with HepG2; 27.2 µM in the series with K562; 27.2 µM in [3]; 27.2 µM with A549. For the same compound, the concentration for half-maximal inhibition (IC50) with MDA-MB-231 was determined as 27.2 µM; with T47D, 129 µM; in the series with HuCCT-1, 27.2 µM; in the series on MRC5, 82.1 µM.

Consider `CC(C)[C@]1(O)C=C2[C@H](O)C[C@H]3C(C)(C)CCC[C@]3(C)[C@H]2C[C@H]1O`, for which the inhibition at 12.5 µM against Aromatase [1] is 21%. `CC(C)[C@@]1(O)CC[C@H]2C(CC[C@H]3C(C)(C)CCC[C@]23C)[C@H]1O` (stereo partly specified): on Aromatase [1], 12.5 µM produced 16% inhibition. As to `C[C@@H]1O[C@]2(C(C)(C)O)C=C3CC[C@H]4C(C)(C)CCC[C@]4(C)[C@@]31OO2`, on Aromatase [2], the IC50 was found to be 10.7 µM. The compound `CC(C)C1=CC2=CC[C@H]3C(C)(C)CCC[C@]3(C)[C@H]2[C@H](O)C1` came in with an inhibition at 12.5 µM at Aromatase [1] of 36%. Regarding `C=C[C@]1(C)C=C2CC[C@H]3C(C)(C)CCC[C@]3(C)[C@H]2CC1`, half-maximal inhibition at Aromatase [2] (IC50) was put at 10.4 µM. With `C[C@H]1C[C@]2(O)O[C@@]1(C)C=C1CC[C@H]3C(C)(C)CCC[C@]3(C)[C@H]12`, on Aromatase [2], the midpoint of inhibition, the IC50, lay at 11.8 µM. In turn, `CC(C)[C@@]12CC3=C([C@@H](CO1)O2)[C@@]1(C)CCCC(C)(C)[C@@H]1CC3` gave an inhibition at 12.5 µM at Aromatase [1] of 26%.

`C[C@@H]1OC(=O)C=C2[C@H](O)C[C@H]3C(C)(C)CCC[C@]3(C)[C@H]21`: on Aromatase [1], the inhibition at 12.5 µM came out at 14%.

As for `C[C@@H]1OC(=O)C=C2[C@H](O)C[C@H]3C(C)(C)CCC[C@]3(C)[C@]21O`, 12.5 µM produced 25% inhibition against Aromatase [1]. With `C=C[C@@]1(C)CC(=O)C2=C(CC[C@H]3C(C)(C)CCC[C@]23C)C1`, it took 7.9 µM to reach half-maximal inhibition on Aromatase [2] (IC50). For the compound `CC(C)c1cc(O)c2c(c1)[C@H](O)C[C@H]1C(C)(C)CCC[C@]21C`, half-maximal inhibition at Aromatase [2] (IC50) was put at 7.2 µM. Take `CC(C)[C@@]1(O)CC[C@H]2C(CC[C@H]3C(C)(C)CCC[C@]23C)[C@@H]1O` (stereo partly specified): at Aromatase [1], 12.5 µM produced 15% inhibition.

One may read the inhibition as the percentage by which the read-out fell short of the control. As usually defined, the IC50 is the point on the concentration scale where inhibition reaches its midpoint.
